pIC50: −log10 of the molar value.
What was measured:
human MER (528-end) = molecular target: T1, human MER (528-end) (Homo sapiens, UniProt Q12866); assay: HTRF kinase activity biochemical assay, MER; conditions: 10 μM ATP, 30 minutes pre-incubation; read-out: HTRF MERTK IC50
T1 construct: human MER (528-end); purchased Camnabio, Japan
T1 sequence (Q12866 528-999 limits assumed): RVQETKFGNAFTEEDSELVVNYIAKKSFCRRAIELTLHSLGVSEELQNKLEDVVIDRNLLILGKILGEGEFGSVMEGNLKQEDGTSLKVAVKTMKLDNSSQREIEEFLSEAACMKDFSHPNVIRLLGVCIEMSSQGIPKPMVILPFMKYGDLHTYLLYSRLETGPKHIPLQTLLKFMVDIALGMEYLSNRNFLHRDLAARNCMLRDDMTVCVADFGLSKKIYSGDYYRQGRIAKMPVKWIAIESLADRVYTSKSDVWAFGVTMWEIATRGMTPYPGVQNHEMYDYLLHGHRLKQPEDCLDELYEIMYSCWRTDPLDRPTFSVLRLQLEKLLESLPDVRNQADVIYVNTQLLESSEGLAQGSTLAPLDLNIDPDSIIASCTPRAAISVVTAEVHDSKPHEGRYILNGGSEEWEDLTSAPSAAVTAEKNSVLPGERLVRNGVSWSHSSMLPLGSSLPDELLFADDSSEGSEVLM

human AXL (473-end) = molecular target: T2, human AXL (473-end) (Homo sapiens, UniProt P30530); assay: HTRF kinase activity biochemical assay, AXL; conditions: 10 μM ATP, 30 minutes pre-incubation
T2 construct: human AXL (473-end); purchased SignalChem, Canada
T2 sequence (P30530 473-894 limits assumed): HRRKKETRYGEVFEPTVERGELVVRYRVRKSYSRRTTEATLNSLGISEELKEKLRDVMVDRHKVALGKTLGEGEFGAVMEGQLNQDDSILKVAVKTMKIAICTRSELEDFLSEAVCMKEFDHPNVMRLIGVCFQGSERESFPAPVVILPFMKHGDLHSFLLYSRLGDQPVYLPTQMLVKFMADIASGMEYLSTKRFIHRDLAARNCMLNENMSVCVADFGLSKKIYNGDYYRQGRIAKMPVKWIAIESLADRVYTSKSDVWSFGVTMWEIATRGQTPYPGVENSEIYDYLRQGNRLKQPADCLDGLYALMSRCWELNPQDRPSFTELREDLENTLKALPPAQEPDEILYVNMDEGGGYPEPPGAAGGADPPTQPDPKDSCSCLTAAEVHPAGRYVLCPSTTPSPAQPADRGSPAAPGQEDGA

human TYRO3 (455-end) = molecular target: T3, human TYRO3 (455-end) (Homo sapiens, UniProt Q06418); assay: HTRF kinase activity biochemical assay, TYRO3; conditions: 10 μM ATP, 30 minutes pre-incubation; read-out: HTRF TYRO IC50
T3 construct: TYRO3 (455-end); purchased SignalChem, Canada
T3 sequence (Q06418 455-890 limits assumed): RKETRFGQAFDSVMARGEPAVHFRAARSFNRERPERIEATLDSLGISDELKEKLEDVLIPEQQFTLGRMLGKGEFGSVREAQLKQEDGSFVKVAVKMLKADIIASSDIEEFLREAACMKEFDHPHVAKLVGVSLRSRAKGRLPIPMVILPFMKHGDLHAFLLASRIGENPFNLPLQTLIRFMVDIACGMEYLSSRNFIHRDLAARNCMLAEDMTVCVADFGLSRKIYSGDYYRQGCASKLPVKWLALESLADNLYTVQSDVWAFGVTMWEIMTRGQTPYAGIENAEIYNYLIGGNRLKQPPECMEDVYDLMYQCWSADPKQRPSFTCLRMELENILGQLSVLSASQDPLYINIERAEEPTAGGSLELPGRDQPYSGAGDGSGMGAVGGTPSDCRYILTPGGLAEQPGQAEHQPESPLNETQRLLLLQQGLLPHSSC

| Structure (SMILES) | pIC50 (human MER (528-end)) | pIC50 (human AXL (473-end)) | pIC50 (human TYRO3 (455-end)) |
| --- | --- | --- | --- |
| Nc1ncc(-c2ccc(F)nc2)cc1C(=O)N[C@H]1CCC[C@@H]1OCc1ccc(-c2ccc3c(c2)CCCC3N2CCN(CCO)CC2)cc1 (stereo partly drawn) [Example 106, 6-amino-6′-fluoro-N-{(1S,2S)-2-[(4-{5-[4-(2-hydroxyethyl)piperazin-1-yl]-5,6,7,8-tetrahydronaphthalen-2-yl}phenyl)methoxy]cyclopentyl}[3,3′-bipyridine]-5-carboxamide] | > 8.00 | > 8.00 | 7.00 to 8.00 |
| CN1CCN(C2CC(C)(C)c3cc(-c4ccc(CO[C@H]5CCC[C@@H]5NC(=O)c5cc(-c6ccn(C)c(=O)c6)cnc5N)cc4)ccc32)CC1 (stereo partly drawn) [Example 107, 6-amino-N-[(1S,2S)-2-({4-[3,3-dimethyl-1-(4-methylpiperazin-1-yl)-2,3-dihydro-1H-inden-5-yl]phenyl}methoxy)cyclopentyl]-1′-methyl-2′-oxo-1′,2′-dihydro[3,4′-bipyridine]-5-carboxamide] | > 8.00 | > 8.00 | 7.00 to 8.00 |
| CN1CCN(C2CC(C)(C)c3cc(-c4ccc(CO[C@H]5CCC[C@@H]5NC(=O)c5cc(-c6cccnc6F)cnc5N)cc4)ccc32)CC1 (stereo partly drawn) [Example 108, 6-amino-N-[(1S,2S)-2-({4-[3,3-dimethyl-1-(4-methylpiperazin-1-yl)-2,3-dihydro-1H-inden-5-yl]phenyl}methoxy)cyclopentyl]-2′-fluoro[3,3′-bipyridine]-5-carboxamide] | > 8.00 | > 8.00 | 7.00 to 8.00 |
| CN(C)C1c2ccc(-c3ccc(CO[C@H]4CCC[C@@H]4NC(=O)c4cc(-c5cnn(C)c5)cnc4N)cc3)cc2CC1(C)C (stereo partly drawn) [Example 109, 2-amino-N-[(1S,2S)-2-({4-[1-(dimethylamino)-2,2-dimethyl-2,3-dihydro-1H-inden-5-yl]phenyl}methoxy)cyclopentyl]-5-(1-methyl-1H-pyrazol-4-yl)pyridine-3-carboxamide] | 7.00 to 8.00 | > 8.00 | < 6.00 |
| Cc1cn(C2CCN(CCO)CC2)c2ncc(-c3ccc(CO[C@H]4CCC[C@@H]4NC(=O)c4cc(-c5cnn(C)c5)cnc4N)cc3)cc12 [Example 110, 2-amino-N-{(1S,2S)-2-[(4-{1-[1-(2-hydroxyethyl)piperidin-4-yl]-3-methyl-1H-pyrrolo[2,3-b]pyridin-5-yl}phenyl)methoxy]cyclopentyl}-5-(1-methyl-1H-pyrazol-4-yl)pyridine-3-carboxamide] | > 8.00 | > 8.00 | 6.00 to 7.00 |
| Cn1cc(-c2cnc(N)c(C(=O)N[C@H]3CCC[C@@H]3OCc3ccc(-c4ccc5c(cnn5C5CCN(CCO)CC5)c4)cc3)c2)cn1 [Example 111, 2-amino-N-{(1S,2S)-2-[(4-{1-[1-(2-hydroxyethyl)piperidin-4-yl]-1H-indazol-5-yl}phenyl)methoxy]cyclopentyl}-5-(1-methyl-1H-pyrazol-4-yl)pyridine-3-carboxamide] | 7.00 to 8.00 | 6.00 to 7.00 | < 6.00 |
| Cn1cc(-c2cnc(N)c(C(=O)N[C@H]3CCC[C@@H]3OCc3ccc(-c4ccc5c(c4)CCCN5C4CCN(CCO)CC4)cc3)c2)cn1 [Example 112, 2-amino-N-{(1S,2S)-2-[(4-{1-[1-(2-hydroxyethyl)piperidin-4-yl]-1,2,3,4-tetrahydroquinolin-6-yl}phenyl)methoxy]cyclopentyl}-5-(1-methyl-1H-pyrazol-4-yl)pyridine-3-carboxamide] | > 8.00 | > 8.00 | 7.00 to 8.00 |
| Cn1cc(-c2cnc(N)c(C(=O)N[C@H]3CCC[C@@H]3OCc3ccc(-c4ccc5c(n4)C(C)(C)CN5C4CCN(CCO)CC4)cc3)c2)cn1 [Example 113, 2-amino-N-{(1S,2S)-2-[(4-{1-[1-(2-hydroxyethyl)piperidin-4-yl]-3,3-dimethyl-2,3-dihydro-1H-pyrrolo[3,2-b]pyridin-5-yl}phenyl)methoxy]cyclopentyl}-5-(1-methyl-1H-pyrazol-4-yl)pyridine-3-carboxamide] | > 8.00 | 7.00 to 8.00 | 6.00 to 7.00 |
| Cn1cc(-c2cnc(N)c(C(=O)N[C@H]3CCC[C@@H]3OCc3ccc(-c4ccc5c(c4)C(C)(C)CCN5C4CCN(CCO)CC4)cc3)c2)cn1 [Example 114, 2-amino-N-{(1S,2S)-2-[(4-{1-[1-(2-hydroxyethyl)piperidin-4-yl]-4,4-dimethyl-1,2,3,4-tetrahydroquinolin-6-yl}phenyl)methoxy]cyclopentyl}-5-(1-methyl-1H-pyrazol-4-yl)pyridine-3-carboxamide] | > 8.00 | > 8.00 | 7.00 to 8.00 |
| CN1CCN([C@H]2CCc3cc(-c4ccc(CO[C@H]5CCC[C@@H]5NC(=O)c5cc(-c6ccn(C)c(=O)c6)cnc5N)cc4)ccc32)CC1 [Example 115, 6-amino-1′-methyl-N-[(1S,2S)-2-({4-[(1S)-1-(4-methylpiperazin-1-yl)-2,3-dihydro-1H-inden-5-yl]phenyl}methoxy)cyclopentyl]-2′-oxo-1′,2′-dihydro[3,4′-bipyridine]-5-carboxamide] | > 8.00 | > 8.00 | 6.00 to 7.00 |
| CN1CCN([C@H]2CCc3cc(-c4ccc(CO[C@H]5CCC[C@@H]5NC(=O)c5cc(-c6cccnc6F)cnc5N)cc4)ccc32)CC1 [Example 116, 6-amino-2′-fluoro-N-[(1S,2S)-2-({4-[(1S)-1-(4-methylpiperazin-1-yl)-2,3-dihydro-1H-inden-5-yl]phenyl}methoxy)cyclopentyl][3,3′-bipyridine]-5-carboxamide] | > 8.00 | > 8.00 | 6.00 to 7.00 |
| Nc1ncc(-c2ccc(F)nc2)cc1C(=O)N[C@H]1CCC[C@@H]1OCc1ccc(-c2ccc3c(c2)CC[C@H]3N2CCN3C[C@H](O)C[C@H]3C2)cc1 [Example 118, 6-amino-6′-fluoro-N-{(1S,2S)-2-[(4-{(1R)-1-[(7R,8aS)-7-hydroxyhexahydropyrrolo[1,2-a]pyrazin-2 (1H)-yl]-2,3-dihydro-1H-inden-5-yl}phenyl)methoxy]cyclopentyl}[3,3′-bipyridine]-5-carboxamide] | > 8.00 | 7.00 to 8.00 | < 6.00 |
| CC1(C)CC(N2CCN(CCO)CC2)c2ccc(-c3ccc(CO[C@H]4CCC[C@@H]4NC(=O)c4cc(-c5cccnc5F)cnc4N)cc3)cc21 (stereo partly drawn) [Example 119, 6-amino-2′-fluoro-N-{(1S,2S)-2-[(4-{1-[4-(2-hydroxyethyl)piperazin-1-yl]-3,3-dimethyl-2,3-dihydro-1H-inden-5-yl}phenyl)methoxy]cyclopentyl}[3,3′-bipyridine]-5-carboxamide] | > 8.00 | > 8.00 | 7.00 to 8.00 |
| Cn1cc(-c2cnc(N)c(C(=O)N[C@H]3CCC[C@@H]3OCc3ccc(-c4ccc5c(c4)OCCC5N4CCN(CCO)CC4)cc3)c2)cn1 (stereo partly drawn) [Example 121, 2-amino-N-{(1S,2S)-2-[(4-{4-[4-(2-hydroxyethyl)piperazin-1-yl]-3,4-dihydro-2H-1-benzopyran-7-yl}phenyl)methoxy]cyclopentyl}-5-(1-methyl-1H-pyrazol-4-yl)pyridine-3-carboxamide] | > 8.00 | > 8.00 | 7.00 to 8.00 |
| Cn1cc(-c2cnc(N)c(C(=O)N[C@H]3CCC[C@@H]3OCc3ccc(-c4ccc5c(c4)CCCC5N4CCNCC4)cc3)c2)cn1 (stereo partly drawn) [Example 122, 2-amino-5-(1-methyl-1H-pyrazol-4-yl)-N-[(1S,2S)-2-({4-[5-(piperazin-1-yl)-5,6,7,8-tetrahydronaphthalen-2-yl]phenyl}methoxy)cyclopentyl]pyridine-3-carboxamide] | > 8.00 | > 8.00 | 7.00 to 8.00 |
| Nc1ncc(-c2cncc(F)c2)cc1C(=O)N[C@H]1CCC[C@@H]1OCc1ccc(-c2ccc3c(c2)CCCC3N2CCN(CCO)CC2)cc1 (stereo partly drawn) [Example 123, 6-amino-5′-fluoro-N-{(1S,2S)-2-[(4-{5-[4-(2-hydroxyethyl)piperazin-1-yl]-5,6,7,8-tetrahydronaphthalen-2-yl}phenyl)methoxy]cyclopentyl}[3,3′-bipyridine]-5-carboxamide] | > 8.00 | > 8.00 | 7.00 to 8.00 |

Source: patent US20260146035A1, “FUSED BICYCLIC COMPOUNDS AND THEIR USE AS MER AND AXL INHIBITORS” (DONG-A ST CO., LTD., priority 2022, published 2026)
